The values below are quoted from earlier work in patent publication US20160199302A1, “Pharmaceutical Composition Comprising Temozolomide With Improved Stability and Process for Manufacturing the Same” (Samyang Biopharmaceuticals Corporation, priority 2012, published 2016).

For this data set the following is noted: background.

For the compound `Cn1nnc2c(C(N)=O)ncn2c1=O` [temozolomide, 3,4-dihydro-3-methyl-4-oxoimidazo[5,1-d]-as-tetrazine-8-carboxamide], the Solubility in water entry was “water-insoluble”.
